Legend:
Phosphodiesterase 3 = Phosphodiesterase 3 (Homo sapiens, UniProt Q14432+Q13370); assay: Evaluated for its ability to inhibit PDE3.; format: protein assay
[1] = target: T1, 3',5'-cyclic-AMP phosphodiesterase 4A (Homo sapiens, UniProt P27815); assay: Evaluated for its ability to inhibit PDE4A.
[2] = target: 3',5'-cyclic-AMP phosphodiesterase 4D (Homo sapiens, UniProt Q08499); assay: Evaluated for its ability to inhibit PDE4D.
[3] = target: T2, 3',5'-cyclic-AMP phosphodiesterase 4B (Rattus norvegicus, UniProt P14646); assay: Evaluated for its ability to inhibit PDE4B.
T2 sequence (P14646 whole entry): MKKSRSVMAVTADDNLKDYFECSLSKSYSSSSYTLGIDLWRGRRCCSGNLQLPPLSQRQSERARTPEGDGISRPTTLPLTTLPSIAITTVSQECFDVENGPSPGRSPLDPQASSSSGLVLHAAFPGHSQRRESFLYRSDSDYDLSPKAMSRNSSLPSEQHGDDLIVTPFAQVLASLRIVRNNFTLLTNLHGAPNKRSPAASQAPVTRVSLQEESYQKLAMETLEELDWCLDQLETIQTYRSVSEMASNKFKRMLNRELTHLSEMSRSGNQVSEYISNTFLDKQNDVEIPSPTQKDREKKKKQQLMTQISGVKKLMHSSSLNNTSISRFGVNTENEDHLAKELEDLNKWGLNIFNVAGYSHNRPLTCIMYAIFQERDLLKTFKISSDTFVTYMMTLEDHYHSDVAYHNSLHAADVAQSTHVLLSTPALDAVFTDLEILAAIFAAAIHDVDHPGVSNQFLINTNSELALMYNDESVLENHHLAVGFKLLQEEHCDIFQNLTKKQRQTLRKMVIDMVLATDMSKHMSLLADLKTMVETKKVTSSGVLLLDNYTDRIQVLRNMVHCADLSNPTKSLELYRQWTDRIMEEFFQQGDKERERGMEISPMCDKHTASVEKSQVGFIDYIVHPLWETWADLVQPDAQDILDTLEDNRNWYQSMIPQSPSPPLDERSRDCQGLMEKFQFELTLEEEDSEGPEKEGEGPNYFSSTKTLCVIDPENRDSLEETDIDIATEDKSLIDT

[4] = target: T1, 3',5'-cyclic-AMP phosphodiesterase 4A; assay: Inhibition of PDE4A
Phosphodiesterase 4 [5] = target: T3, Phosphodiesterase 4 (Rattus norvegicus, UniProt P14270+P14646+P14644+P54748); assay: Evaluated for the inhibition of [3H]rolipram binding to membrane-bound PDE4.
Phosphodiesterase 4 [6] = target: T3, Phosphodiesterase 4; assay: Inhibition of [3H]-rolipram binding to membrane-bound PDE4

T1 sequence (P27815 whole entry): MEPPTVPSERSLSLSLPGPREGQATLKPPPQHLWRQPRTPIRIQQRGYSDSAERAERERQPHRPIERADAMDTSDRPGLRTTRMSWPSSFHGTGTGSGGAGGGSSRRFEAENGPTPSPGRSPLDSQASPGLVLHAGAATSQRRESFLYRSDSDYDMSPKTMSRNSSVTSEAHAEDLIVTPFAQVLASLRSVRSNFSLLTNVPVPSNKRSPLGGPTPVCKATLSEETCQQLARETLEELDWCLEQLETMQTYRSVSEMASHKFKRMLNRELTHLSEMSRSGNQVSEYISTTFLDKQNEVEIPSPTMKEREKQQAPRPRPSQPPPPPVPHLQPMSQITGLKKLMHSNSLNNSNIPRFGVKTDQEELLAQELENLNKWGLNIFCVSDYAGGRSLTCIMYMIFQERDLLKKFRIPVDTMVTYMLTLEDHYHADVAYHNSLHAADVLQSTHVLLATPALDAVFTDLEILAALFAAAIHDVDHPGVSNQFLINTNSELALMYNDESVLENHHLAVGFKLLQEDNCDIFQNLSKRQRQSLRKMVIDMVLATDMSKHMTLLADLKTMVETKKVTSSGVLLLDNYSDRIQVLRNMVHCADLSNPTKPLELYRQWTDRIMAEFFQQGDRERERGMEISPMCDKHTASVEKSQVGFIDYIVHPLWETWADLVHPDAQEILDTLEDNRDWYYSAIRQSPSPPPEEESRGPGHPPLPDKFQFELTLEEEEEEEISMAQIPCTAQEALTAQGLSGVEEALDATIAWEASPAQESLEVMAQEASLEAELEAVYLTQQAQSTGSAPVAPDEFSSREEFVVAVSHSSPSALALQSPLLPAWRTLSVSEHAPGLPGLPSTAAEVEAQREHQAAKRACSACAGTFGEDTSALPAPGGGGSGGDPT
Sequence of 3',5'-cyclic-AMP phosphodiesterase 4D (Q08499 whole entry): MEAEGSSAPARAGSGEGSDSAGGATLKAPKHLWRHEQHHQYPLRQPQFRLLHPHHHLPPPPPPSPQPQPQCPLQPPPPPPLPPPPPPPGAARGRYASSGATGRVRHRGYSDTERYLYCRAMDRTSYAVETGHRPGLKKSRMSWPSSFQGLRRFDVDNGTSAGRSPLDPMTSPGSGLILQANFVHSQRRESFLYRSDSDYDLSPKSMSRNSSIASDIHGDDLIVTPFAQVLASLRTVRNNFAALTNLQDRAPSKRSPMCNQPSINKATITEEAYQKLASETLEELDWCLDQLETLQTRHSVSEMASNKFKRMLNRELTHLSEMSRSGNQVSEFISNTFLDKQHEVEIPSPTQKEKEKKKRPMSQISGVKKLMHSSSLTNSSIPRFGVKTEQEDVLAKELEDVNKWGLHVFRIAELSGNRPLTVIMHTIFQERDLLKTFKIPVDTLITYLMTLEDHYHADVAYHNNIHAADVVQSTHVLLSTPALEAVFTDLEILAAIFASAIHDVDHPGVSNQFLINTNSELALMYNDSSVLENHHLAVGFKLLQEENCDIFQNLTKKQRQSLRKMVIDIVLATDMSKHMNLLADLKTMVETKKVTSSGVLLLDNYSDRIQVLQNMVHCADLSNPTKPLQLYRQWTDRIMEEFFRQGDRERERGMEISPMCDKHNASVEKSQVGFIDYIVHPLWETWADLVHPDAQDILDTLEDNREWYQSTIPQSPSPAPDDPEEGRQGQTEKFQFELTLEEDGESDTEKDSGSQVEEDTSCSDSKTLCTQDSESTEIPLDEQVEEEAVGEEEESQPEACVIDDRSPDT

Row | SMILES | IC50 (Phosphodiesterase 3) | IC50 [1] | IC50 [2] | IC50 [3] | IC50 [4] | IC50 (Phosphodiesterase 4 [5]) | IC50 (Phosphodiesterase 4 [6])
1 | CCOC(=O)COc1cc2nc(C)nc(-c3cc(OCC4CC4)cc(OCC4CC4)c3)c2cc1OC | 700 nM | > 10000 nM | > 100000 nM | 61000 nM | – | – | –
2 | CCc1nc(-c2cc(OCC3CC3)cc(OCC3CC3)c2)c2cc(OCCO)c(OCCO)cc2n1 | – | > 100000 nM | > 100000 nM | > 100000 nM | – | – | –
3 | COc1cc2nc(C)nc(-c3cc(OCC4CC4)cc(OCC4CC4)c3)c2cc1OC | – | 900 nM | 800 nM | 650 nM | – | – | –
4 | COc1cc2nc(C)nc(-c3cc(O)cc(O)c3)c2cc1OC | – | – | 2000 nM | 14000 nM | 23500 nM | – | –
5 | COc1cc2c(-c3cc(OCC4CC4)cc(OCC4CC4)c3)nc(-c3cccs3)nc2cc1OCCO | – | 5400 nM | 3000 nM | 1300 nM | – | – | –
6 | CCSc1nc(-c2cc(OCC3CC3)cc(OCC3CC3)c2)c2cc(OC)c(OCCO)cc2n1 | – | 540 nM | 700 nM | 440 nM | – | – | –
7 | COc1cc2c(-c3cc(OCC4CC4)cc(OCC4CC4)c3)nc(-c3cc(OCC4CC4)cc(OCC4CC4)c3)nc2cc1OCCO | 7800 nM | 14000 nM | 8500 nM | 22000 nM | – | – | –
8 | CCc1nc(-c2cc(OCC3CC3)cc(OCC3CC3)c2)c2cc(OC)c(OCc3ccccc3)cc2n1 | – | > 100000 nM | > 100000 nM | > 100000 nM | – | – | –
9 | COc1cc2c(-c3cc(OCC4CC4)cc(OCC4CC4)c3)nc(N3CCOCC3)nc2cc1OCCO | – | 3300 nM | 1200 nM | 2500 nM | – | – | –
10 | COc1cc2nc(C)nc(-c3cc(OC(C)C)cc(OC(C)C)c3)c2cc1OC | – | 2300 nM | 1200 nM | 1300 nM | – | – | –
11 | CCc1nc(-c2cc(OCC3CC3)cc(OCC3CC3)c2)c2ccc(OCCO)cc2n1 | – | 630 nM | 850 nM | 660 nM | – | – | –

The next molecules have a lower IC50 [2] than those just listed; values first:

Row | IC50 (Phosphodiesterase 3) | IC50 [1] | IC50 [2] | IC50 [3] | IC50 [4] | IC50 (Phosphodiesterase 4 [5]) | IC50 (Phosphodiesterase 4 [6]) | SMILES
12 | 340 nM | 85 nM | 60 nM | 70 nM | – | 43 nM | – | CCOc1nc(-c2cc(OCC3CC3)cc(OCC3CC3)c2)c2cc(OC)c(OCCO)cc2n1
13 | 310 nM | 250 nM | 130 nM | 200 nM | – | 145 nM | – | COc1cc2c(-c3cc(OCC4CC4)cc(OCC4CC4)c3)nc(OCCCO)nc2cc1OCCO
14 | 430 nM | 500 nM | 230 nM | 340 nM | – | 200 nM | – | COc1cc2c(-c3cc(OCC4CC4)cc(OCC4CC4)c3)nc(NCCCO)nc2cc1OCCO
15 | – | 3300 nM | 650 nM | 2400 nM | – | – | – | CCc1nc(-c2cc(OCC3CC3)cc(OCC3CC3)c2)c2cc(OC)c(O)cc2n1
16 | 430 nM | 70 nM | 90 nM | 80 nM | – | – | – | COc1cc2c(-c3cc(OCC4CC4)cc(OCC4CC4)c3)nc(OCCO)nc2cc1OCCO
17 | 16 nM | 30 nM | 22 nM | 25 nM | – | 15 nM | – | CCc1nc(-c2cc(OCC3CC3)cc(OCC3CC3)c2)c2cc(OC)c(OCCO)cc2n1
18 | 390 nM | 130 nM | 140 nM | 110 nM | – | 210 nM | – | COc1nc(-c2cc(OCC3CC3)cc(OCC3CC3)c2)c2cc(OC)c(OCCO)cc2n1
19 | 720 nM | 1300 nM | 300 nM | 300 nM | – | – | 50 nM | CCCCc1nc(-c2cc(OCC3CC3)cc(OCC3CC3)c2)c2cc(OC)c(OCCO)cc2n1
20 | – | 2900 nM | 540 nM | 600 nM | – | – | – | CCc1nc(-c2cc(OCC3CC3)cc(OCC3CC3)c2)c2cc(OC)c(OCC3CC3)cc2n1
